Laboratory results published in ChEMBL document CHEMBL6114967, “Design and synthesis of novel sulfur-substituted triptolide with the ability to induce autophagy through inhibition of SRSF1 expression” (Eur J Med Chem, 2025).
Activity calls are given as the source filed them. The calls are words filed in the database; no cut-off is given here.

Test system: HepG2
Assay: Antiproliferative activity against human HepG2 cells assessed as inhibition of cell proliferation incubated for 72 hrs by MTT assay
Type: functional, cell-based
Conditions: HepG2, 72 h

Row | SMILES | IC50
1 | CC(C)[C@]12O[C@H]1[C@@H]1O[C@]13[C@]1(O[C@H]1C[C@H]1C4=C(CC[C@@]13C)C(=O)OC4)[C@@H]2O [TRIPTOLIDE] | 60 nM

Test system: MCF7
Assay: Antiproliferative activity against human MCF7 cells assessed as inhibition of cell proliferation incubated for 72 hrs by MTT assay
Type: functional, cell-based
Conditions: MCF7, 72 h

Row | SMILES | IC50
2 | CC(C)[C@]12O[C@H]1[C@@H]1O[C@]13[C@]1(O[C@H]1C[C@H]1C4=C(CC[C@@]13C)C(=O)OC4)[C@@H]2O [TRIPTOLIDE] | 70 nM

Test system: HCT-116
Assay: Antiproliferative activity against human HCT-116 cells assessed as inhibition of cell proliferation incubated for 72 hrs by MTT assay
Type: functional, cell-based
Conditions: HCT-116, 72 h

Row | SMILES | IC50
3 | CC(C)[C@]12O[C@H]1[C@@H]1O[C@]13[C@]1(O[C@H]1C[C@H]1C4=C(CC[C@@]13C)C(=O)OC4)[C@@H]2O [TRIPTOLIDE] | 10 nM

Test system: U-251
Assay: Antiproliferative activity against human U-251 cells assessed as inhibition of cell proliferation incubated for 72 hrs by MTT assay
Type: functional, cell-based
Conditions: U-251, 72 h

Row | SMILES | IC50
4 | CC(C)[C@]12O[C@H]1[C@@H]1O[C@]13[C@]1(O[C@H]1C[C@H]1C4=C(CC[C@@]13C)C(=O)OC4)[C@@H]2O [TRIPTOLIDE] | 20 nM

Test system: HGC-27
Assay: Antiproliferative activity against human HGC-27 cells assessed as inhibition of cell proliferation incubated for 72 hrs by MTT assay
Type: functional, cell-based
Conditions: HGC-27, 72 h

Row | SMILES | IC50
5 | CC(C)[C@]12O[C@H]1[C@@H]1O[C@]13[C@]1(O[C@H]1C[C@H]1C4=C(CC[C@@]13C)C(=O)OC4)[C@@H]2O [TRIPTOLIDE] | 20 nM

Test system: AGS
Assay: Antiproliferative activity against human AGS cells assessed as inhibition of cell proliferation incubated for 72 hrs by MTT assay
Type: functional, cell-based
Conditions: not given

Row | SMILES | IC50
6 | CC(C)[C@]12O[C@H]1[C@@H]1O[C@]13[C@]1(O[C@H]1C[C@H]1C4=C(CC[C@@]13C)C(=O)OC4)[C@@H]2O [TRIPTOLIDE] | 40 nM

Test system: BGC-823
Assay: Antiproliferative activity against human BGC-823 cells assessed as inhibition of cell proliferation incubated for 72 hrs by MTT assay
Type: functional, cell-based
Conditions: BGC-823, 72 h

Row | SMILES | IC50
7 | CC(C)[C@]12O[C@H]1[C@@H]1O[C@]13[C@]1(O[C@H]1C[C@H]1C4=C(CC[C@@]13C)C(=O)OC4)[C@@H]2O [TRIPTOLIDE] | 60 nM

Test system: SGC-7901
Assay: Antiproliferative activity against human SGC-7901 cells assessed as inhibition of cell proliferation incubated for 72 hrs by MTT assay
Type: functional, cell-based
Conditions: SGC-7901, 72 h

Row | SMILES | IC50
8 | CC(C)[C@]12O[C@H]1[C@@H]1O[C@]13[C@]1(O[C@H]1C[C@H]1C4=C(CC[C@@]13C)C(=O)OC4)[C@@H]2O [TRIPTOLIDE] | 40 nM

Test system: A549
Assay: Antiproliferative activity against human A549 cells assessed as inhibition of cell proliferation incubated for 72 hrs by MTT assay
Type: functional, cell-based
Conditions: A549, 72 h

Row | SMILES | IC50
9 | CC(C)[C@]12O[C@H]1[C@@H]1O[C@]13[C@]1(O[C@H]1C[C@H]1C4=C(CC[C@@]13C)C(=O)OC4)[C@@H]2O [TRIPTOLIDE] | 40 nM

Test system: B16-F10
Assay: Antiproliferative activity against mouse B16-F10 cells assessed as inhibition of cell proliferation incubated for 72 hrs by MTT assay
Type: functional, cell-based
Conditions: B16-F10, 72 h

Row | SMILES | IC50
10 | CC(C)[C@]12O[C@H]1[C@@H]1O[C@]13[C@]1(O[C@H]1C[C@H]1C4=C(CC[C@@]13C)C(=O)OC4)[C@@H]2O [TRIPTOLIDE] | 3 nM

Test system: not listed separately
Assay: Antiproliferative activity against human LO2 cells assessed as inhibition of cell proliferation incubated for 72 hrs by MTT assay
Type: toxicity, cell-based, L02
Conditions: not given

Row | SMILES | IC50 at 72 h
11 | CC(C)[C@]12O[C@H]1[C@@H]1O[C@]13[C@]1(O[C@H]1C[C@H]1C4=C(CC[C@@]13C)C(=O)OC4)[C@@H]2O [TRIPTOLIDE] | 40 nM

Test system: not listed separately
Assay: Selectivity index, ratio of IC50 for antiproliferative activity against human LO2 cells to IC50 for antiproliferative activity against human HGC-27 cells
Type: toxicity, cell-based
Conditions: LO2 cells and HGC-27 cells, read-out: Ratio IC50

Row | SMILES | selectivity ratio
12 | CC(C)[C@]12O[C@H]1[C@@H]1O[C@]13[C@]1(O[C@H]1C[C@H]1C4=C(CC[C@@]13C)C(=O)OC4)[C@@H]2O [TRIPTOLIDE] | 1.89

Test system: not listed separately
Assay: Selectivity index, ratio of IC50 for antiproliferative activity against human LO2 cells to IC50 for antiproliferative activity against human AGS cells
Type: cell-based
Conditions: LO2 cells and AGS cells, read-out: Ratio IC50

Row | SMILES | selectivity ratio
13 | CC(C)[C@]12O[C@H]1[C@@H]1O[C@]13[C@]1(O[C@H]1C[C@H]1C4=C(CC[C@@]13C)C(=O)OC4)[C@@H]2O [TRIPTOLIDE] | 1.08

Test system: HGC-27
Assay: Induction of apoptosis in human HGC-27 cells assessed as viable cells at 0.1 uM incubated for 48 hrs by annexin V-FITC and PI staining based flow cytometry analysis (reference value: 91.8%)
Type: functional
Conditions: read-out: Activity

Row | SMILES | viability at 0.1 µM
14 | CC(C)[C@]12O[C@H]1[C@@H]1O[C@]13[C@]1(O[C@H]1C[C@H]1C4=C(CC[C@@]13C)C(=O)OC4)[C@@H]2O [TRIPTOLIDE] | 48.5%

Test system: HGC-27
Assay: Induction of apoptosis in human HGC-27 cells assessed as early apoptotic cells at 0.1 uM incubated for 48 hrs by annexin V-FITC and PI staining based flow cytometry analysis (reference value: 3.13%)
Type: functional
Conditions: not given

Row | SMILES | Activity
15 | CC(C)[C@]12O[C@H]1[C@@H]1O[C@]13[C@]1(O[C@H]1C[C@H]1C4=C(CC[C@@]13C)C(=O)OC4)[C@@H]2O [TRIPTOLIDE] | 34%

Test system: HGC-27
Assay: Induction of apoptosis in human HGC-27 cells assessed as late apoptotic cells at 0.1 uM incubated for 48 hrs by annexin V-FITC and PI staining based flow cytometry analysis (reference value: 5.02%)
Type: functional
Conditions: not given

Row | SMILES | Activity
16 | CC(C)[C@]12O[C@H]1[C@@H]1O[C@]13[C@]1(O[C@H]1C[C@H]1C4=C(CC[C@@]13C)C(=O)OC4)[C@@H]2O [TRIPTOLIDE] | 17.4%

Test system: HGC-27
Assay: Induction of apoptosis in human HGC-27 cells assessed as necrotic cells at 0.1 uM incubated for 48 hrs by annexin V-FITC and PI staining based flow cytometry analysis (reference value: 0.062%)
Type: functional
Conditions: not given

Row | SMILES | Activity
17 | CC(C)[C@]12O[C@H]1[C@@H]1O[C@]13[C@]1(O[C@H]1C[C@H]1C4=C(CC[C@@]13C)C(=O)OC4)[C@@H]2O [TRIPTOLIDE] | 0.16%

Test system: AGS
Assay: Induction of apoptosis in human AGS cells assessed as viable cells at 0.1 uM incubated for 48 hrs by annexin V-FITC and PI staining based flow cytometry analysis (reference value: 92.0%)
Type: functional
Conditions: read-out: Activity

Row | SMILES | viability at 0.1 µM
18 | CC(C)[C@]12O[C@H]1[C@@H]1O[C@]13[C@]1(O[C@H]1C[C@H]1C4=C(CC[C@@]13C)C(=O)OC4)[C@@H]2O [TRIPTOLIDE] | 10%

Test system: AGS
Assay: Induction of apoptosis in human AGS cells assessed as early apoptotic cells at 0.1 uM incubated for 48 hrs by annexin V-FITC and PI staining based flow cytometry analysis (reference value: 4.44%)
Type: functional
Conditions: not given

Row | SMILES | Activity
19 | CC(C)[C@]12O[C@H]1[C@@H]1O[C@]13[C@]1(O[C@H]1C[C@H]1C4=C(CC[C@@]13C)C(=O)OC4)[C@@H]2O [TRIPTOLIDE] | 50.5%

Test system: AGS
Assay: Induction of apoptosis in human AGS cells assessed as late apoptotic cells at 0.1 uM incubated for 48 hrs by annexin V-FITC and PI staining based flow cytometry analysis (reference value: 3.15%)
Type: functional
Conditions: not given

Row | SMILES | Activity
20 | CC(C)[C@]12O[C@H]1[C@@H]1O[C@]13[C@]1(O[C@H]1C[C@H]1C4=C(CC[C@@]13C)C(=O)OC4)[C@@H]2O [TRIPTOLIDE] | 37.9%

Test system: AGS
Assay: Induction of apoptosis in human AGS cells assessed as necrotic cells at 0.1 uM incubated for 48 hrs by annexin V-FITC and PI staining based flow cytometry analysis (reference value: 0.44%)
Type: functional
Conditions: not given

Row | SMILES | Activity
21 | CC(C)[C@]12O[C@H]1[C@@H]1O[C@]13[C@]1(O[C@H]1C[C@H]1C4=C(CC[C@@]13C)C(=O)OC4)[C@@H]2O [TRIPTOLIDE] | 1.65%

Test system: HGC-27
Assay: Antitumor activity against human HGC-27 cells xenografted in male BALB/c nude mouse assessed as tumor growth inhibition at 0.5 mg/kg, ip administered every day for 15 days relative to control
Type: functional
Conditions: HGC-27, 360 h, time 15 day, read-out: TGI

Row | SMILES | inhibition in vivo at 0.5 mg/kg
22 | CC(C)[C@]12O[C@H]1[C@@H]1O[C@]13[C@]1(O[C@H]1C[C@H]1C4=C(CC[C@@]13C)C(=O)OC4)[C@@H]2O [TRIPTOLIDE] | 97.2%

Test system: not listed separately
Assay: Toxicity in male ICR mouse assessed as body weight loss at 2 mg/kg, ip measured after 4 days
Type: organism-based
Conditions: in vivo, 96 h, time 4 day

Row | SMILES | Activity
23 | CC(C)[C@]12O[C@H]1[C@@H]1O[C@]13[C@]1(O[C@H]1C[C@H]1C4=C(CC[C@@]13C)C(=O)OC4)[C@@H]2O [TRIPTOLIDE] | Toxic

Test system: not listed separately
Assay: Toxicity in male ICR mouse assessed as animal death at 2 mg/kg, ip measured after 4 days
Type: organism-based
Conditions: in vivo, 96 h, time 4 day

Row | SMILES | Activity
24 | CC(C)[C@]12O[C@H]1[C@@H]1O[C@]13[C@]1(O[C@H]1C[C@H]1C4=C(CC[C@@]13C)C(=O)OC4)[C@@H]2O [TRIPTOLIDE] | Toxic

Test system: not listed separately
Assay: Acute toxicity in male ICR mouse assessed as abnormal hepatocyte morphology at 2 mg/kg, ip measured after 7 days by H and E staining based light microscopic analysis
Type: organism-based
Conditions: in vivo, 168 h, time 7 day

Row | SMILES | Activity
25 | CC(C)[C@]12O[C@H]1[C@@H]1O[C@]13[C@]1(O[C@H]1C[C@H]1C4=C(CC[C@@]13C)C(=O)OC4)[C@@H]2O [TRIPTOLIDE] | Toxic

Test system: not listed separately
Assay: Acute toxicity in male ICR mouse assessed as enlarged hepatocyte volume at 2 mg/kg, ip measured after 7 days by H and E staining based light microscopic analysis
Type: organism-based
Conditions: in vivo, 168 h, time 7 day

Row | SMILES | Activity
26 | CC(C)[C@]12O[C@H]1[C@@H]1O[C@]13[C@]1(O[C@H]1C[C@H]1C4=C(CC[C@@]13C)C(=O)OC4)[C@@H]2O [TRIPTOLIDE] | Toxic

Test system: not listed separately
Assay: Acute toxicity in male ICR mouse assessed as appearance of empty cytoplasm at 2 mg/kg, ip measured after 7 days by H and E staining based light microscopic analysis
Type: organism-based
Conditions: in vivo, 168 h, time 7 day

Row | SMILES | Activity
27 | CC(C)[C@]12O[C@H]1[C@@H]1O[C@]13[C@]1(O[C@H]1C[C@H]1C4=C(CC[C@@]13C)C(=O)OC4)[C@@H]2O [TRIPTOLIDE] | Toxic

Test system: not listed separately
Assay: Acute toxicity in male ICR mouse assessed as appearance of bright cytoplasm at 2 mg/kg, ip measured after 7 days by H and E staining based light microscopic analysis
Type: organism-based
Conditions: in vivo, 168 h, time 7 day

Row | SMILES | Activity
28 | CC(C)[C@]12O[C@H]1[C@@H]1O[C@]13[C@]1(O[C@H]1C[C@H]1C4=C(CC[C@@]13C)C(=O)OC4)[C@@H]2O [TRIPTOLIDE] | Toxic

Test system: not listed separately
Assay: Acute toxicity in male ICR mouse assessed as appearance of unclear cell boundaries at 2 mg/kg, ip measured after 7 days by H and E staining based light microscopic analysis
Type: organism-based
Conditions: in vivo, 168 h, time 7 day

Row | SMILES | Activity
29 | CC(C)[C@]12O[C@H]1[C@@H]1O[C@]13[C@]1(O[C@H]1C[C@H]1C4=C(CC[C@@]13C)C(=O)OC4)[C@@H]2O [TRIPTOLIDE] | Toxic

Test system: HGC-27
Assay: Induction of autophagy in human HGC-27 cells assessed as increase in LC3 II/LC3 I ratio in tumor tissue at 25 to 100 mg/kg, ip administered daily
Type: functional, organism-based
Conditions: dose 25-100 mg/kg

Row | SMILES | Activity
30 | CC(C)[C@]12O[C@H]1[C@@H]1O[C@]13[C@]1(O[C@H]1C[C@H]1C4=C(CC[C@@]13C)C(=O)OC4)[C@@H]2O [TRIPTOLIDE] | inactive
